This is an account of results in PMC7571063, “High-Resolution Mass Spectrometry-Based Approaches for the Detection and Quantification of Peptidase Activity in Plasma” (Molecules, 2020).

The subject of this data set is proteases in pooled pig plasma. Nature of the data set: Multiplex substrate profiling by mass spectrometry (MSP-MS) of pig plasma with the 228-member tetradecapeptide library. The conditions noted are these: pooled pig plasma ~50-fold diluted to 1 mg/mL protein, DPBS 1 mM DTT, room temperature, 15 and 60 min, LC-MS/MS, triplicate.

“Also recorded” adds a separate entry of the source.

Source text: To quantify proteolytic activity in plasma samples obtained from healthy pigs, we used the MSP-MS assay, which is a global and unbiased substrate-based protease profiling approach. This assay uses a physicochemically diverse library of peptides as substrates for proteases present in a biological sample. Tandem mass spectrometry is used to quantify protease-derived peptide cleavage products. These substrates were designed to contain a unique dipeptide at each terminus (position 1–2 and 13–14) to profile exo-acting proteases and a central decapeptide sequence (position 3–12) consisting of all combinations of neighbor and near-neighbor amino acid pairs that are used to profile endoproteases [10].
Equal volumes of plasma from six pigs were mixed and then diluted to a final concentration of 1 mg/mL protein in assay buffer and mixed with the synthetic peptides. This dilution of ~50-fold reduced the concentration of plasma proteins and peptides in the assay that could interfere with the quantification of the synthetic peptides. Cleavage of synthetic peptides by proteases in neat plasma was predicted to occur in minutes and therefore dilution of plasma decreases the concentration of all proteases so that activity could be monitored at two time intervals over the course of an hour-long assay. This allowed us to detect and quantify peptide cleavage products after 15 and 60 min incubations. […]

For the sequence FRIHGFDEAHNAWM, the “cleavage site of the library peptide by pig plasma proteases” value is on record as “cleaved between His-Asn; also recorded: cleaved between Ala-Trp”.
